{"source": "paper PMC12090182", "about": "“Repurposing of the RIPK1-Selective Benzo[1,4]oxazepin-4-one Scaffold for the Development of a Type III LIMK1/2 Inhibitor” (ACS Chemical Biology, 2025)", "format_in_all_cases": "cell-based", "key": {"NTRK2": {"molecular_target": "NTRK2 (Homo sapiens, UniProt Q16620)", "settings": "HEK-293T; 1 μM inhibitor, HEK293T cells", "method": "(§1) For plate preparation, a transfection mix was prepared in white 384-well small-volume plates (Greiner, cat. no. 784075) by preplating 3 μL of 20 μL/mL FuGene HD (Promega, cat. no. E2311), diluted in an Opti-MEM medium (Gibco, cat. no. 11058-021). One μL of DNA from both DNA vector source plates of the K192 kit was added using an Echo 550 acoustic dispenser (Beckman Coulter). The mix was incubated for 30 min, and 6 μL of HEK293T cells in an Opti-MEM medium was added. The proteins were allowed to express for 20 h. After expression, Tracer K10 was added using the concentrations recommended in the K192 technical manual and a 1 μM inhibitor was added to every second well. […] Five μL of substrate solution was added to every well, and filtered luminescence was measured on a PHERAstar plate reader (BMG Labtech) equipped with a luminescence filter pair (450 nm BP filter (donor) and a 610 nm LP filter (acceptor)). For every kinase, occupancy was calculated and plotted using GraphPad Prism 10 (Table S5)."}, "CAMK1": {"molecular_target": "CAMK1 (Homo sapiens, UniProt Q14012)", "settings": "HEK-293T; 1 μM inhibitor, HEK293T cells", "method": "as §1"}, "RON": {"molecular_target": "RON (Homo sapiens, UniProt Q04912)", "settings": "HEK-293T; 1 μM inhibitor, HEK293T cells", "method": "as §1"}, "AURKC": {"molecular_target": "AURKC (Homo sapiens, UniProt Q9UQB9)", "settings": "HEK-293T; 1 μM inhibitor, HEK293T cells", "method": "as §1"}, "RPS6KA3": {"molecular_target": "RPS6KA3 (Homo sapiens, UniProt P51812)", "sequence (P51812 whole entry)": "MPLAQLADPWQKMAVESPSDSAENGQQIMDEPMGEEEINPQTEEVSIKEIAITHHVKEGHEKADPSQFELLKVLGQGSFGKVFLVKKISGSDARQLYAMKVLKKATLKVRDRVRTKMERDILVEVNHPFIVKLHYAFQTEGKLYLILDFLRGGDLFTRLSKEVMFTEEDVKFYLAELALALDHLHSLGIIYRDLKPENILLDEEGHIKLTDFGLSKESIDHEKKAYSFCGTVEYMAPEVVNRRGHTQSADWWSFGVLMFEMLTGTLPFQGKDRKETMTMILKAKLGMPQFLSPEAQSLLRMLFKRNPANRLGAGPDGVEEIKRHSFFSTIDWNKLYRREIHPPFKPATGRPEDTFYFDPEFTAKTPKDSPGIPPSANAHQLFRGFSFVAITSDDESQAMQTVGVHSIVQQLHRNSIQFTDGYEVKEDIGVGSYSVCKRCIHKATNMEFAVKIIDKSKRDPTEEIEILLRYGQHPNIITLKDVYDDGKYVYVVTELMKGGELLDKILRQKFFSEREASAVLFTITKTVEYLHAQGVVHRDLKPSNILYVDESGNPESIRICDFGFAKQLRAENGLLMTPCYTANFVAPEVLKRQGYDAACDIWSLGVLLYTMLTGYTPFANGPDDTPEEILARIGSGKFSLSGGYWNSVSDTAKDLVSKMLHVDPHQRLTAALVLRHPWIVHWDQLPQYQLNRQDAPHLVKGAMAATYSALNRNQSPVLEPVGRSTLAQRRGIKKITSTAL", "settings": "HEK-293T; 1 μM inhibitor, HEK293T cells", "method": "as §1"}, "TNK1": {"molecular_target": "TNK1 (Homo sapiens, UniProt Q13470)", "sequence (Q13470 whole entry)": "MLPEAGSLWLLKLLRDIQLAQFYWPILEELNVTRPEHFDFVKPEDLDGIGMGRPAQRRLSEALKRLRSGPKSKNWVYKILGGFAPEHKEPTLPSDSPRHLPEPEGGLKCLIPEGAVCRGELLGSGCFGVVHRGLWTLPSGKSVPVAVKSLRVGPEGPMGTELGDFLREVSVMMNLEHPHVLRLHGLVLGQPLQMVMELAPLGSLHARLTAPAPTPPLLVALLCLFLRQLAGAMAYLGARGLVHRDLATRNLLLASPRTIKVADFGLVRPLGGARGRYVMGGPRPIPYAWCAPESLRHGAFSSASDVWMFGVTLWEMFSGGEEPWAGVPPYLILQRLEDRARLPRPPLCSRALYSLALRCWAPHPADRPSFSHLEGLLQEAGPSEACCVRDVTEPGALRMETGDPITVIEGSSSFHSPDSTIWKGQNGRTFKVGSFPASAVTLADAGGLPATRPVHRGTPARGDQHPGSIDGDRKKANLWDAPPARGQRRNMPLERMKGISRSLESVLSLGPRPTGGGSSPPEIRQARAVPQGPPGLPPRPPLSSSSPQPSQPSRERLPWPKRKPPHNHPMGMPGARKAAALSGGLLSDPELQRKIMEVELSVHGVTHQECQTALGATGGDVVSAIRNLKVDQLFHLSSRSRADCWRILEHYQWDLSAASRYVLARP", "settings": "HEK-293T; 1 μM inhibitor, HEK293T cells", "method": "as §1"}, "DYRK1B": {"molecular_target": "DYRK1B (Homo sapiens, UniProt Q9Y463)", "settings": "HEK-293T; 1 μM inhibitor, HEK293T cells", "method": "as §1"}, "BMX": {"molecular_target": "BMX (Homo sapiens, UniProt P51813)", "sequence (P51813 whole entry)": "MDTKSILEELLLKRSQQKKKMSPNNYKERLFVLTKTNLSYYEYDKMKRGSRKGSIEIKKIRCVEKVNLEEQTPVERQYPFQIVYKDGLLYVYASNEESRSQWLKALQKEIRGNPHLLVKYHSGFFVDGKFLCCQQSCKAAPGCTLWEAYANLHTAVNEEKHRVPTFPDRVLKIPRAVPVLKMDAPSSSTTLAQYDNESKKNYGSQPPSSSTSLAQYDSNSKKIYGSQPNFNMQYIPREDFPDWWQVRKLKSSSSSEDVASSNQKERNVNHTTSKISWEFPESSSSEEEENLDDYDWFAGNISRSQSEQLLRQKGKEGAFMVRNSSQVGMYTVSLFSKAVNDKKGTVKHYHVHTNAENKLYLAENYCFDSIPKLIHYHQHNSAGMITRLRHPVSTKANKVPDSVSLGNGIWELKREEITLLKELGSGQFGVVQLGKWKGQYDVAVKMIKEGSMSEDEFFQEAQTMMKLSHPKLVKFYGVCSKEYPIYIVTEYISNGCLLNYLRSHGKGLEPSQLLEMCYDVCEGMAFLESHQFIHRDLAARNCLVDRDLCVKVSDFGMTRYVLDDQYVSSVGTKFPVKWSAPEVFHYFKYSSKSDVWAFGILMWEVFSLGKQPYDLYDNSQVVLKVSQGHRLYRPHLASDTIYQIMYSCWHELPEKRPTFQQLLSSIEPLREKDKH", "settings": "HEK-293T; 1 μM inhibitor, HEK293T cells", "method": "as §1"}, "JNK3": {"molecular_target": "JNK3 (Homo sapiens, UniProt P53779)", "settings": "HEK-293T; 1 μM inhibitor, HEK293T cells", "method": "as §1"}, "MYLK4": {"molecular_target": "MYLK4 (Homo sapiens, UniProt Q86YV6)", "sequence (Q86YV6 whole entry)": "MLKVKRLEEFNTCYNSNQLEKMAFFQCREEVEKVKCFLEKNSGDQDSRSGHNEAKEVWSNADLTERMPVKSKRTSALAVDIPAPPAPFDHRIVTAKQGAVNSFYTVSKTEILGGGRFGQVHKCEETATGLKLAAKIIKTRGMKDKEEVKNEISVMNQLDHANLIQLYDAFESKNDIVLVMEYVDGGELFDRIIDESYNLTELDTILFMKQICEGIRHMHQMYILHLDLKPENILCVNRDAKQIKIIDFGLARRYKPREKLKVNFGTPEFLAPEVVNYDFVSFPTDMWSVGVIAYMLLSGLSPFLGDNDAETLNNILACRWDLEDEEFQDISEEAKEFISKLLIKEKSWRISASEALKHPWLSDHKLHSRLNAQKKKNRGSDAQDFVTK", "settings": "HEK-293T; 1 μM inhibitor, HEK293T cells", "method": "as §1"}, "MYLK3": {"molecular_target": "MYLK3 (Homo sapiens, UniProt Q32MK0)", "settings": "HEK-293T; 1 μM inhibitor, HEK293T cells", "method": "as §1"}, "SNF1LK2": {"molecular_target": "SNF1LK2 (Homo sapiens, UniProt Q9H0K1)", "settings": "HEK-293T; 1 μM inhibitor, HEK293T cells", "method": "as §1"}, "PTK2": {"molecular_target": "PTK2 (Homo sapiens, UniProt Q05397)", "settings": "1 μM inhibitor, HEK293T cells", "method": "as §1"}, "DCLK3": {"molecular_target": "DCLK3 (Homo sapiens, UniProt Q9C098)", "settings": "HEK-293T; 1 μM inhibitor, HEK293T cells", "method": "as §1"}, "MAP4K1": {"molecular_target": "MAP4K1 (Homo sapiens, UniProt Q92918)", "sequence (Q92918 whole entry)": "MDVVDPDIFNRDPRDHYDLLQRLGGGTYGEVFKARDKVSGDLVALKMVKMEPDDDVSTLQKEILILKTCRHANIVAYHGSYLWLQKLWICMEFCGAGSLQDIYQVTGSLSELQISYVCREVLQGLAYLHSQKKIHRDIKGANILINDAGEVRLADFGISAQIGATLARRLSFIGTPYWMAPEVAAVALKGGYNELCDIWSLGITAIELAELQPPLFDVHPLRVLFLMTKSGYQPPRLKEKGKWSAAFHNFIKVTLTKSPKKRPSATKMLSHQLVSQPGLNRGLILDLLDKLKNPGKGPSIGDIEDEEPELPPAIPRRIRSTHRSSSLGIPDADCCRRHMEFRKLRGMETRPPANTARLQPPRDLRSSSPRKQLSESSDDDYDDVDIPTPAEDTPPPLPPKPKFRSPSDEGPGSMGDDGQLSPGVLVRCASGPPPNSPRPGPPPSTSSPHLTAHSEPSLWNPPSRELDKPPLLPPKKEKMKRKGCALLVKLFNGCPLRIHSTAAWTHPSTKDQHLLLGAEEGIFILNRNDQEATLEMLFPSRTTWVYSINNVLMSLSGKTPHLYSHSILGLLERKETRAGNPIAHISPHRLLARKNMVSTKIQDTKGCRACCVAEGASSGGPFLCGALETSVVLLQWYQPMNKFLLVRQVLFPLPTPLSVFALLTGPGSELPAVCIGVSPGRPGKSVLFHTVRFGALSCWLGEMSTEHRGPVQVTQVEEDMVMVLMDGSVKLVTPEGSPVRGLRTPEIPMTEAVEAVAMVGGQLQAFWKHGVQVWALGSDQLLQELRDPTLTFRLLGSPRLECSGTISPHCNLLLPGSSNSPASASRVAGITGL", "settings": "HEK-293T; 1 μM inhibitor, HEK293T cells", "method": "as §1"}, "NIM1K": {"molecular_target": "NIM1K (Homo sapiens, UniProt Q8IY84)", "sequence (Q8IY84 whole entry)": "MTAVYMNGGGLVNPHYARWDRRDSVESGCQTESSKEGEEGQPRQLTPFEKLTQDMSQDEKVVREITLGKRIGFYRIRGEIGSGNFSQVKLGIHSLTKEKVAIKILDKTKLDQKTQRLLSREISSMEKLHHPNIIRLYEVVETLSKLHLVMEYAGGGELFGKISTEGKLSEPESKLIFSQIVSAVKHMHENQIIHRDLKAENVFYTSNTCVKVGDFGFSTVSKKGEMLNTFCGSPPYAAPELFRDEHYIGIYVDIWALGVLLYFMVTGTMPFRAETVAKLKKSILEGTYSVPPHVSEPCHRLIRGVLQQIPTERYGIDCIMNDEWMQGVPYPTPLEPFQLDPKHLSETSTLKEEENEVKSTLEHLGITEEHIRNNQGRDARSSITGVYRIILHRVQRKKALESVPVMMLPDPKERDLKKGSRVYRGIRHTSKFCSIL", "settings": "HEK-293T; 1 μM inhibitor, HEK293T cells", "method": "as §1"}, "FES": {"molecular_target": "FES (Homo sapiens, UniProt P07332)", "sequence (P07332 whole entry)": "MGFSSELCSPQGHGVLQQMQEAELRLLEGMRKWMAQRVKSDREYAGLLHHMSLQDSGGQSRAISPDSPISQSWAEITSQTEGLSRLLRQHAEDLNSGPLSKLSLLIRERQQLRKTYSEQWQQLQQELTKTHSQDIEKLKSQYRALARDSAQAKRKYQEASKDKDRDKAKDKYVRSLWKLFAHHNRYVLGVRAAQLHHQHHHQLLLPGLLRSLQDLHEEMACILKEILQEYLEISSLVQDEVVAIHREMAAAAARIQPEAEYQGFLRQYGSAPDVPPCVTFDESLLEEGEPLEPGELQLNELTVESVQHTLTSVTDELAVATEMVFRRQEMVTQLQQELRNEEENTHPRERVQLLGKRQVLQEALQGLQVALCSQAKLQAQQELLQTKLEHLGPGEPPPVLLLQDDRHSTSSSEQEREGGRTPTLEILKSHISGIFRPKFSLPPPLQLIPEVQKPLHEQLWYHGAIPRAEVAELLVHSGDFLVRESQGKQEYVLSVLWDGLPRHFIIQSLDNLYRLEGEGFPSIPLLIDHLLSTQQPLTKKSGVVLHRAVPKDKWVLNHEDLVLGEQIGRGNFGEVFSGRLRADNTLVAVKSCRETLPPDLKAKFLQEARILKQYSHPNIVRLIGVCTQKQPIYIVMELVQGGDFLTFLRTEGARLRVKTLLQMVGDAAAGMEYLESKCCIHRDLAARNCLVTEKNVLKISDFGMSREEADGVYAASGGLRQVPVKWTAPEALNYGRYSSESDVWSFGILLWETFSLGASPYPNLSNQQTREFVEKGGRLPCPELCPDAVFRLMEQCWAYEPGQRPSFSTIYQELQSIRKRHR", "settings": "HEK-293T; 1 μM inhibitor, HEK293T cells", "method": "as §1"}, "CDK16": {"molecular_target": "CDK16 (Homo sapiens, UniProt Q00536)", "settings": "HEK-293T; 1 μM inhibitor, HEK293T cells", "method": "as §1"}, "CDK17": {"molecular_target": "CDK17 (Homo sapiens, UniProt Q00537)", "settings": "HEK-293T; 1 μM inhibitor, HEK293T cells", "method": "as §1"}, "TNNI3K": {"molecular_target": "TNNI3K (Homo sapiens, UniProt Q59H18)", "settings": "HEK-293T; 1 μM inhibitor, HEK293T cells", "method": "as §1"}, "WEE2": {"molecular_target": "WEE2 (Homo sapiens, UniProt P0C1S8)", "settings": "HEK-293T; 1 μM inhibitor, HEK293T cells", "method": "as §1"}, "TNK2(iso1)": {"molecular_target": "TNK2(iso1) (Homo sapiens, UniProt Q07912)", "settings": "HEK-293T; 1 μM inhibitor, HEK293T cells", "method": "as §1"}, "MAP4K3": {"molecular_target": "MAP4K3 (Homo sapiens, UniProt Q8IVH8)", "settings": "HEK-293T; 1 μM inhibitor, HEK293T cells", "method": "as §1"}, "LATS1": {"molecular_target": "LATS1 (Homo sapiens, UniProt O95835)", "settings": "HEK-293T; 1 μM inhibitor, HEK293T cells", "method": "as §1"}, "RIPK1": {"molecular_target": "T1, RIPK1 (Homo sapiens, UniProt Q13546)", "T1 construct": "full-length LIMK1/2, RIPK1, BTK, and LRRK2 cloned in a frame in a NanoLuc-vector (Promega); host or cells: HEK293T", "T1 sequence (Q13546 1-671)": "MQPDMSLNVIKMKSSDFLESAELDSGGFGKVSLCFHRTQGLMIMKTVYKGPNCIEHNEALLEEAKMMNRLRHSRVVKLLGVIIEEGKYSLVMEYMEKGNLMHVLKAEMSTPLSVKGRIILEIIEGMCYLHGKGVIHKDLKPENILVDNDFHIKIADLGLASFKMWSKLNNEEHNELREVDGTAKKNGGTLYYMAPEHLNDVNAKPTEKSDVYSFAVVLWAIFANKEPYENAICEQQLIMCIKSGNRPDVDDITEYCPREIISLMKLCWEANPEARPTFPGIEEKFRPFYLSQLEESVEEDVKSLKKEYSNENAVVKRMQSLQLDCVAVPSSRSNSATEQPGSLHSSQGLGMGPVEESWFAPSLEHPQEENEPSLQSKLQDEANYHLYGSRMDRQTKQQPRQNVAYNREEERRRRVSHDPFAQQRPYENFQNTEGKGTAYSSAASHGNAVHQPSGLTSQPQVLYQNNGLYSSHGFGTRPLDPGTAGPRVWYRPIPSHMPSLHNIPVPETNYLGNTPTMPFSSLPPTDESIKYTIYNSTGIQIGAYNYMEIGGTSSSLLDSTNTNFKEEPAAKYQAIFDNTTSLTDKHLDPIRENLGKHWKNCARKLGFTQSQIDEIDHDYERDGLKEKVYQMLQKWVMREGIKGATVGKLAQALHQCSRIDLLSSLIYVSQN", "settings": "HEK-293T; 1 μM inhibitor, HEK293T cells", "method": "as §1"}, "MAP3K10": {"molecular_target": "MAP3K10 (Homo sapiens, UniProt Q02779)", "settings": "HEK-293T; 1 μM inhibitor, HEK293T cells", "method": "as §1"}, "PRKX": {"molecular_target": "PRKX (Homo sapiens, UniProt P51817)", "sequence (P51817 whole entry)": "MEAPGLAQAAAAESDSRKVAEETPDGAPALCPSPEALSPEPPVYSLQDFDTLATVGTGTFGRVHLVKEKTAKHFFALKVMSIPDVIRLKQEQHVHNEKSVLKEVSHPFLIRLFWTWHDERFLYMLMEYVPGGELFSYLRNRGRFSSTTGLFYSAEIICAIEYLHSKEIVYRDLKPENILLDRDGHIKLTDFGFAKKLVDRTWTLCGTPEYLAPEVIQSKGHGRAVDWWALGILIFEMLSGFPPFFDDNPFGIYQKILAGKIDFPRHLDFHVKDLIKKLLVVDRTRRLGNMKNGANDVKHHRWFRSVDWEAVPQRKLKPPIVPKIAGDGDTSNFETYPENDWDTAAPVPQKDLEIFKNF", "settings": "HEK-293T; 1 μM inhibitor, HEK293T cells", "method": "as §1"}}}
{"smiles": "CN1C(=O)[C@@H](N2CCc3c(nn(Cc4ccccc4)c3C(N)=O)C2=O)COc2cc(Cl)ccc21", "note": "[Compound 10, (S)-2-benzyl-6-(8-chloro-5-methyl-4-oxo-2,3,4,5-tetrahydrobenzo[b][1,4]oxazepin-3-yl)-7-oxo-4,5,6,7-tetrahydro-2H-pyrazolo[3,4-c]pyridine-3-carboxamide]", "values": [{"measurement": "receptor occupancy at 1 µM", "setting": "NTRK2", "value": 1.19, "unit": "%"}, {"measurement": "receptor occupancy at 1 µM", "setting": "CAMK1", "value": 2.97, "unit": "%"}, {"measurement": "receptor occupancy at 1 µM", "setting": "RON", "value": 0.288, "unit": "%"}, {"measurement": "receptor occupancy at 1 µM", "setting": "AURKC", "value": 5.08, "unit": "%"}, {"measurement": "receptor occupancy at 1 µM", "setting": "RPS6KA3", "value": -0.166, "unit": "%"}, {"measurement": "receptor occupancy at 1 µM", "setting": "TNK1", "value": -2.13, "unit": "%"}, {"measurement": "receptor occupancy at 1 µM", "setting": "DYRK1B", "value": -4.33, "unit": "%"}, {"measurement": "receptor occupancy at 1 µM", "setting": "BMX", "value": -3.33, "unit": "%"}, {"measurement": "receptor occupancy at 1 µM", "setting": "JNK3", "value": 3.53, "unit": "%"}, {"measurement": "receptor occupancy at 1 µM", "setting": "MYLK4", "value": -2.91, "unit": "%"}, {"measurement": "receptor occupancy at 1 µM", "setting": "MYLK3", "value": 3.25, "unit": "%"}, {"measurement": "receptor occupancy at 1 µM", "setting": "SNF1LK2", "value": 4.84, "unit": "%"}, {"measurement": "receptor occupancy at 1 µM", "setting": "PTK2", "value": -12.2, "unit": "%"}, {"measurement": "receptor occupancy at 1 µM", "setting": "DCLK3", "value": 2.41, "unit": "%"}, {"measurement": "receptor occupancy at 1 µM", "setting": "MAP4K1", "value": 3.49, "unit": "%"}, {"measurement": "receptor occupancy at 1 µM", "setting": "NIM1K", "value": 5.36, "unit": "%"}, {"measurement": "receptor occupancy at 1 µM", "setting": "FES", "value": 3.15, "unit": "%"}, {"measurement": "receptor occupancy at 1 µM", "setting": "CDK16", "value": -2.19, "unit": "%"}, {"measurement": "receptor occupancy at 1 µM", "setting": "CDK17", "value": 4.13, "unit": "%"}, {"measurement": "receptor occupancy at 1 µM", "setting": "TNNI3K", "value": -0.0649, "unit": "%"}, {"measurement": "receptor occupancy at 1 µM", "setting": "WEE2", "value": -0.12, "unit": "%"}, {"measurement": "receptor occupancy at 1 µM", "setting": "TNK2(iso1)", "value": 4.21, "unit": "%"}, {"measurement": "receptor occupancy at 1 µM", "setting": "MAP4K3", "value": -3.75, "unit": "%"}, {"measurement": "receptor occupancy at 1 µM", "setting": "LATS1", "value": -16, "unit": "%"}, {"measurement": "receptor occupancy at 1 µM", "setting": "RIPK1", "value": 78.4, "unit": "%"}, {"measurement": "receptor occupancy at 1 µM", "setting": "MAP3K10", "value": 3.06, "unit": "%"}, {"measurement": "receptor occupancy at 1 µM", "setting": "PRKX", "value": 2.51, "unit": "%"}]}
